The results in this text go back to EPA's ToxRefDB 2.

The test system of data set [1] is rat. Conditions: Multigenerational reproductive toxicity study, sprague dawley, Oral, Gavage/Intubation, dose end: 1 generation.
The subject of data set [2] is rat. Conditions: Sub-acute repeat dose toxicity, sprague dawley, Oral, Gavage/Intubation, dose end: 28 day, group: systemic.
Data set [3] concerns dog. Conditions: Chronic toxicity; beagle; Oral; Feed; dose end: 52 week; group: systemic; systemic / pathology microscopic / liver / degeneration + systemic / pathology microscopic / liver / hyperplasia + systemic / pathology ….
The test system of data set [4] is rat. Conditions: Prenatal developmental toxicity study, sprague dawley, Oral, Gavage/Intubation, dose end: 15 GD.
Data set [5] deals with rat. Conditions: Subchronic oral toxicity in rodents, sprague dawley, Feed, dose end: 90 day, group: systemic, systemic / in life observation / body weight / body weight + systemic / in life observation / body weight / body weight gain + systemic / in….
Data set [6] relates to rat. Conditions: Combined chronic toxicity/carcinogenicity, sprague dawley, Oral, Feed, dose end: 104 week, group: systemic.
Data set [7] concerns rat. Conditions: Multigenerational reproductive toxicity study, sprague dawley, Oral, Feed, dose end: 2 generation.
For data set [8], the system named is rat. Conditions: Subchronic oral toxicity in rodents, fischer, Feed, dose end: 90 day.
Data set [9] relates to mouse. Conditions: Carcinogenicity, cd1, Oral, Feed, dose end: 78 week, group: systemic.
Data set [10] relates to dog. Conditions: Subchronic oral toxicity in nonrodent, beagle, Feed, dose end: 6 month, group: systemic.
The subject of data set [11] is rat. Conditions: Subchronic oral toxicity in rodents, Feed, dose end: 90 day, group: systemic.
Data set [12] deals with dog. Conditions: Chronic toxicity, beagle, Oral, Feed, dose end: 12 month, group: systemic.
Data set [13] concerns mouse. Conditions: Subchronic oral toxicity in rodents, b6c3f1, Feed, dose end: 13 week, group: systemic, systemic / organ weight / liver / nos + systemic / pathology microscopic / liver / cellular alteration.
Data set [14] concerns rat. Conditions: Combined chronic toxicity/carcinogenicity; fischer; Oral; Feed; dose end: 2 year; group: systemic; systemic / pathology microscopic / liver / hypertrophy + systemic / in life observation / clinical signs / hematuria + systemic / pathology ….
For data set [15], the system named is rat. Conditions: Subchronic oral toxicity in rodents, fischer, Feed, dose end: 13 week, group: systemic, systemic / organ weight / liver / nos + systemic / pathology microscopic / liver / [other] + systemic / organ weight / liver / relative to ….
Data set [16] relates to mouse. Conditions: Carcinogenicity, b6c3f1, Oral, Feed, dose end: 2 year, group: systemic.
Data set [17] concerns rat. Conditions: Combined chronic toxicity/carcinogenicity, fischer, Oral, Feed, dose end: 2 year, group: systemic.
Data set [18] has as its system mouse. Conditions: Subchronic oral toxicity in rodents, b6c3f1, Feed, dose end: 13 week, group: systemic.
Data set [19] relates to mouse. Conditions: Carcinogenicity; b6c3f1; Oral; Feed; dose end: 2 year; group: systemic; systemic / in life observation / body weight / body weight.
The test system of data set [20] is rat. Conditions: Subchronic oral toxicity in rodents, fischer, Feed, dose end: 13 week, group: systemic.
The test system of data set [21] is rat. Conditions: Carcinogenicity; fischer; Oral; Feed; dose end: 2 year; group: systemic; systemic / pathology microscopic / skin / keratoacanthoma.
Where [22] appears, read: group: offspring, systemic / in life observation / body weight / offspring (pup) weight.
[23] abbreviates: group: parental, systemic / organ weight / heart / relative to body weight + systemic / organ weight / kidney / relative to body weight + systemic / organ ….
Setting [24] is: group: reproductive, reproductive / offspring survival early / birth index / live birth index.
The mark [25] stands for this setting: systemic / organ weight / liver / relative to body weight + systemic / clinical chemistry / bilirubin / total bilirubin + systemic / in life….
[26] abbreviates: group: developmental, developmental / developmental malformation / bone / unossified.
Setting [27] is: group: maternal, systemic / in life observation / clinical signs / drooping eyelids (ptosis) + systemic / in life observation / clinical signs / salivation….
[28] abbreviates: systemic / in life observation / body weight / body weight + systemic / in life observation / body weight / body weight gain.
Setting [29] is: systemic / in life observation / body weight / body weight + systemic / in life observation / body weight / body weight gain + systemic / ….
Setting [30] is: group: offspring, systemic / in life observation / body weight / offspring (pup) weight + systemic / in life observation / body weight / offspring (pup) ….
Where [31] appears, read: group: parental, systemic / in life observation / body weight / body weight + systemic / in life observation / body weight / body weight gain.
Where [32] appears, read: group: cholinesterase, cholinesterase / cholinesterase / cholinesterase / brain cholinesterase (che).
Where [33] appears, read: group: cholinesterase, cholinesterase / cholinesterase / cholinesterase / brain cholinesterase (che) + cholinesterase / cholinesterase / cholinesterase / ….
Where [34] appears, read: group: systemic, systemic / hematology / erythrocyte (rbc) count differential / erythrocyte (rbc) + systemic / hematology / hematocrit (hct) / hematocrit (….
[35] abbreviates: group: systemic, systemic / hematology / mean corpuscular hemoglobin concentration (mchc) / mean corpuscular hemoglobin concentration (mchc).
The mark [36] stands for this setting: systemic / in life observation / body weight / body weight gain + systemic / in life observation / food consumption / food efficiency + ….
[37] abbreviates: systemic / organ weight / liver / absolute + systemic / organ weight / liver / relative to body weight.
The mark [38] stands for this setting: systemic / organ weight / liver / absolute + systemic / organ weight / liver / relative to body weight + systemic / clinical chemistry / ….
Where [39] appears, read: systemic / organ weight / liver / nos + systemic / pathology microscopic / liver / [other].
[40] abbreviates: systemic / organ weight / liver / nos + systemic / pathology microscopic / liver / [other] + systemic / organ weight / kidney / nos.
Setting [41] is: systemic / organ weight / liver / relative to body weight + systemic / in life observation / body weight / body weight gain + systemic / ….
Setting [42] is: systemic / organ weight / kidney / nos + systemic / organ weight / kidney / relative to body weight.
[43] abbreviates: systemic / in life observation / body weight / body weight + systemic / in life observation / mortality / mortality.
Where [44] appears, read: systemic / in life observation / body weight / body weight.
Where [45] appears, read: systemic / in life observation / body weight / body weight + systemic / in life observation / mortality / mortality + systemic / pathology ….
[46] abbreviates: systemic / in life observation / body weight / body weight + systemic / in life observation / food consumption / food consumption + systemic….

What is called LOAEL is the lowest dose or exposure tested at which an adverse effect was seen. As a reminder, the NOAEL is the highest dose or exposure tested at which no adverse effect was seen. With `O=[N+]([O-])c1ccc(O)c([N+](=O)[O-])c1` [2,4-Dinitrophenol], the LEL in [1] (setting [22]) turned out to be 30 mg/kg/day; in data set [1] (setting [23]) it was 30 mg/kg/day; in data set [1] (setting [24]), 30 mg/kg/day; in data set [2] (systemic / clinical chemistry / bilirubin / total bilirubin), 10 mg/kg/day. Further, the LOAEL in [1] (setting [22]) is greater than 30 mg/kg/day; in data set [1] (setting [23]) it was greater than 30 mg/kg/day; in data set [1] (setting [24]), greater than 30 mg/kg/day; in data set [2] (setting [25]), greater than 80 mg/kg/day. The NEL in [1] (setting [22]) was found to be 10 mg/kg/day; in data set [1] (setting [23]), 10 mg/kg/day; in data set [1] (setting [24]) it was 10 mg/kg/day; in [2] (systemic / clinical chemistry / bilirubin / total bilirubin + systemic / in life observation / clinical signs / [other] + systemic / in life…), 3 mg/kg/day. For the same molecule, the NOAEL was no less than 30 mg/kg/day in data set [1] (setting [22]), no less than 30 mg/kg/day in data set [1] (setting [23]), no less than 30 mg/kg/day in data set [1] (setting [24]) and no less than 80 mg/kg/day in data set [2] (setting [25]).

On to `CCNc1nc(NC(C)C)nc(SC)n1` [Ametryn], for which the LEL in data set [3] is 70 mg/kg/day; in data set [4] (setting [26]) it was 50 mg/kg/day; in data set [4] (setting [27]), 50 mg/kg/day; in data set [5] it was 36.1 mg/kg/day; in data set [6] (setting [28]) it was 20.9 mg/kg/day; in data set [7] (setting [30]), 131 mg/kg/day. Further, the LEL in data set [7] (setting [31]) was 131 mg/kg/day. Also, the LOAEL in data set [3] was 70 mg/kg/day; in data set [4] (setting [26]), greater than 250 mg/kg/day; in data set [4] (group: maternal, systemic / in life observation / clinical signs / drooping eyelids (ptosis) + systemic / in life observation / clinical signs / salivation), 50 mg/kg/day; in [5] it was 36.1 mg/kg/day; in [6] (setting [28]), 20.9 mg/kg/day; in data set [7] (setting [30]), 131 mg/kg/day. Besides, in data set [7] (setting [31]), the LOAEL turned out to be 131 mg/kg/day. In addition, the NEL in data set [3] was found to be 7.2 mg/kg/day; in data set [4] (setting [26]), 5 mg/kg/day; in data set [4] (setting [27]), 5 mg/kg/day; in data set [5] it was 7.4 mg/kg/day; in data set [6] (setting [29]) it was 2 mg/kg/day; in [7] (setting [30]), 13 mg/kg/day. The NEL in data set [7] (setting [31]) is 13 mg/kg/day. Also, the NOAEL was 7.2 mg/kg/day in data set [3]; no less than 250 mg/kg/day in data set [4] (setting [26]); 5 mg/kg/day in [4] (setting [27]); 7.4 mg/kg/day in [5]; 2 mg/kg/day in [6] (setting [29]); 13 mg/kg/day in data set [7] (setting [30]). Moreover, the NOAEL in [7] (setting [31]) was found to be 13 mg/kg/day.

On to `COC(=O)Nc1cccc(OC(=O)Nc2cccc(C)c2)c1` [Phenmedipham], for which the results for the LEL in [8] (setting [32]), in data set [8] (setting [35]) and in [9] (systemic / pathology gross / spleen / enlarged + systemic / pathology microscopic / adrenal gland / amyloid deposition + systemic / …) were 3.5 mg/kg/day, 3.5 mg/kg/day and 302 mg/kg/day, respectively. The NEL in data set [8] (setting [32]) is less than 3.5 mg/kg/day; in data set [8] (setting [35]), less than 3.5 mg/kg/day; in data set [9] (setting [36]), 75 mg/kg/day. The values for the LOAEL in [8] (setting [33]), in [8] (setting [34]) and in data set [9] (systemic / in life observation / body weight / body weight gain + systemic / in life observation / food consumption / food efficiency) were greater than 366 mg/kg/day, 35.4 mg/kg/day and 1070 mg/kg/day, respectively. Further, the values for the NOAEL in [8] (setting [33]), in [8] (setting [34]) and in data set [9] (setting [36]) were no less than 366 mg/kg/day, 3.5 mg/kg/day and 302 mg/kg/day, respectively.

Regarding `Nc1c(Cl)c(Cl)nc(C(=O)O)c1Cl` [Picloram], the LEL in data set [10] (setting [37]) amounted to 35 mg/kg/day; in [11] (setting [39]) it was 150 mg/kg/day; in data set [12] (systemic / organ weight / liver / relative to body weight + systemic / organ weight / liver / absolute), 175 mg/kg/day; in data set [13], 1000 mg/kg/day; in data set [14] it was 250 mg/kg/day; in data set [15], 150 mg/kg/day. In addition, the LEL in data set [16] (systemic / organ weight / kidney / nos) stood at 1000 mg/kg/day; in data set [17] (setting [43]) it was 20 mg/kg/day. Moreover, the LOAEL in [10] (setting [37]) was 35 mg/kg/day; in data set [11] (setting [39]) it was 150 mg/kg/day; in data set [12] (setting [41]) it was greater than 175 mg/kg/day; in data set [13], 1000 mg/kg/day; in data set [14] it was 250 mg/kg/day; in data set [15], 150 mg/kg/day. The LOAEL is greater than 1000 mg/kg/day in data set [16] (setting [42]) and 60 mg/kg/day in data set [17] (systemic / pathology microscopic / liver / hypertrophy). The NEL in [10] (setting [38]) was 7 mg/kg/day; in [11] (setting [40]) it was 50 mg/kg/day; in data set [12] (systemic / organ weight / liver / relative to body weight + systemic / in life observation / body weight / body weight gain) it was 35 mg/kg/day; in [13], less than 1000 mg/kg/day; in data set [14], less than 250 mg/kg/day; in data set [15], 50 mg/kg/day. In addition, the NEL in [16] (setting [42]) is 500 mg/kg/day; in [17] (setting [43]), less than 20 mg/kg/day. In addition, the NOAEL is 7 mg/kg/day in [10] (setting [38]); 50 mg/kg/day in data set [11] (setting [40]); no less than 175 mg/kg/day in data set [12] (setting [41]); less than 1000 mg/kg/day in data set [13]; less than 250 mg/kg/day in data set [14]; 50 mg/kg/day in data set [15]. In addition, the NOAEL in data set [16] (setting [42]) is no less than 1000 mg/kg/day; in [17] (systemic / in life observation / body weight / body weight + systemic / pathology microscopic / liver / hypertrophy + systemic / clinical …), 20 mg/kg/day.

Regarding `CCNc1cc2oc3cc(=[NH+]CC)c(C)cc-3c(-c3ccccc3C(=O)OCC)c2cc1C.[Cl-]` [Rhodamine 6G], the LEL in data set [18] (setting [44]) was 300 mg/kg/day; in [19] it was 125 mg/kg/day; in [20] (systemic / in life observation / body weight / body weight + systemic / pathology microscopic / bone marrow / atrophy), 25 mg/kg/day; in [21], 10 mg/kg/day. Moreover, the NEL in data set [18] (setting [44]) was 150 mg/kg/day; in data set [19], less than 125 mg/kg/day; in [20] (setting [46]), 12.5 mg/kg/day; in data set [21] it was 5 mg/kg/day. Besides, the LOAEL in data set [18] (setting [45]) was greater than 1200 mg/kg/day; in data set [19], 125 mg/kg/day; in data set [20] (setting [46]), greater than 100 mg/kg/day; in [21], greater than 10 mg/kg/day. Besides, the NOAEL in data set [18] (setting [45]) was no less than 1200 mg/kg/day; in data set [19], less than 125 mg/kg/day; in data set [20] (setting [46]), no less than 100 mg/kg/day; in data set [21] it was no less than 10 mg/kg/day.
